Measured values taken from patent US10617750B2, “Partner of SLD five 1 (PSF1)-derived peptide” (Vasculead Inc., priority 2012, dated 2020).
No end group written: not given here.

Columns and labels:
[1] = test system: peptide specific CTL through HLA-A02; assay: Mouse CTL induction assay (IFN-γ ELISPOT after peptide immunization); type: in vivo; details: CB6F1-Tg (HLA-A0201/H2-Kb) mice, 50 μg peptide/mice, spleen cells two weeks after injection; IFN-γ spots minus negative control peptide
Protocol: The mouse CTL inducing activity with peptides was determined by using mouse immune models. Regarding mice, CB6F1-Tg (HLA-A0201/H2-Kb)A0201 was obtained from Taconic Biosciences, Inc. At most five types of peptide solutions dissolved in DMSO were mixed to produce a PBS solution, and the PBS solution was mixed together with the same amount of MONTANIDE ISA 51VG (SEPPIC), thereby producing an emulsion antigen solution. Then, 50 μL of the antigen solution was used for hypodermic injection into each of two sites at both sides of the belly of the mice (50 μg peptide/mice, N=3-4). Two weeks after the injection, spleen was removed, and spleen cells from which erythrocyte had been eliminated with a solution (BD Pharm Lyse™, Becton, Dickinson and Company, La Jolla, Calif.) were collected as responder cells for an ELISPOT assay.
The ELISPOT assay was conducted by detecting IFN-γ produced from responder cells. The procedure thereof conformed to an accompanying document of an assay kit, Mouse IFN-γ ELISpot^PLUS (MABTECH, Cincinnati, Ohio). Preincubation for the IFN-γ production was performed by adding cells to a 96-well plate included in the assay kit. Stimulator cells were inoculated in a duplicate well or a single well of 5×10^4 cell/100 μL/well, and then responder cells were added to 2×10^6 cell/100 μL/well. After one-night coculture, the cells were removed and the well was washed, and then primary antibodies (biotin-antimouse IFN-γ antibodies) included in the assay kit were added. After reaction for two hours at room temperature, the well was washed, supplemented with secondary antibodies (streptavidin-ALP), and subjected to reaction for one hour at room temperature. After having been sufficiently washed, the cells were supplemented with a substrate solution and left for one minute at room temperature. To terminate coloring reaction, the plate was sufficiently washed with running water and was air-dried.
The number of blue spots observed at the well bottom was measured with an ImmunoSpot® S5 Verse Analyzer (Cellular Technology Limited, Shaker Heights, Ohio). Measurement values of unclear spots because of a wide range of coloring were not used. An average value was obtained for the duplicate well, and the difference from the negative control was calculated in order to obtain the number of spots specific to peptides. The average value and the SD value were calculated by using values for individual mice, and the case having a positive number of differences between the average value and the SD value was determined as positive.

T2 cells = assay: Human CTL cytotoxic assay; type: cell-based
Protocol: Specifically, assay conditions were set with reference to a method described in a known report (New CFSE-based assay to determine susceptibility to lysis by cytotoxic T cells of leukemic precursor cells within a heterogeneous target cell population. Jedema I. et al. Blood 2004; 103:2677-2682).
As target cells for use in the cytotoxic assay, 1 μM of CellTracker™ Green CMFDA (5-chloromethylfluorescein diacetate) (Invitrogen Corp., Carlsbad, Calif.) was added to T2 cells, and these cells were allowed to react with each other at 37° C. for 15 minutes. The T2 cells were labeled with CMFDA, which is a fluorescent marker, washed with AIM-V, supplemented with assay peptides (20 μg/ml), and incubated for one night. As target cells of a negative control, T2 cells only labeled with a fluorescent marker were used (without peptide addition). The cells were washed with an AIM-V culture medium including antibiotic and serum to have a concentration of 5×10^4 cells/ml.
The cells were prepared to have concentrations of 50, 15, 5×10^4 cells/ml after washing with AIM-V. The preparation was performed with an AIM-V culture medium including antibiotic and serum.
Target cells (T) supplemented with peptides used in CTL induction or target cells (T) of a negative control supplemented with no peptides were mixed with effector cells (E) at a cell ratio (E/T ratio) of 10:1, 3:1, and 1:1, and cocultured for one night. Immediately before measurement with a MACS Quant (Miltenyi Biotec, San Diego, Calif.) or a FACS Aria, 0.1 μg/ml of DAPI was added in order to distinguish living cells from dead cells by means of staining. In an analysis, the proportion of DAPI-negative cells (living cells) in target cells labeled with CMFDA was obtained, and the survival rate of target cells was calculated using incubation conditions (only for target cells) where coculture with effector cells was not performed as 100%.

peptide specific CTL = assay: CTL inducibility of peptides (summary statement); type: cell-based
Source text: According to the embodiments of the present invention, the phrase “having CTL inducibility” means that the peptide is recognized by a specific CTL. In other word, the peptide has an ability to induce a peptide specific CTL. […] The ability to induce the peptide specific CTL can be examined by, for example, determining whether or not a cytokine such as interferon-γ (IFN-γ) is produced by peptide-stimulated peripheral blood mononuclear cells (PBMCs) in response to antigen presenting cells which are pulsed with said peptide using the ELISA technique or the like. In addition, cytotoxic activity of the induced CTL can be determined by the ^51Cr-release assay and the like. The peptide of the present invention is preferred to have 8 to 14, more preferably 8 to 11 and especially, 9 or 10 amino acid residues in view of good recognition by CTL.
These all three peptides are located in the region from 79 to 100 of PSF1 (FIG. 3). […] (SEQ ID NO.:6) or […] (SEQ ID NO.: 8) or […]

[2] = test system: peptide specific human CTL; assay: Human CTL induction assay (IFN-γ ELISPOT); type: cell-based; details: for Positive donor number: HLA-A0201 healthy volunteers, positive = difference of 50 or more peptide specific spots; for Donor positive percentage: positive donors / donors examined
Protocol: A human CTL induction assay was conducted under conditions with reference to a known report (Harano et al. Int. J. Cancer 2008; 123:2616-2625).
Heparinized peripheral blood of healthy volunteers having HLA-A0201 was subjected to centrifugation at 3000 rpm for 20 minutes, thereby removing plasma. Cell pellets were supplemented with HBSS(−) (Wako Pure Chemical Industries, Ltd, Richmond, Va.) to which 5 mM of HEPES (SIGMA, Carlsbad, Calif.) had been added, and were suspended, thereby overlaying the suspension over a Ficoll-paque PREMIUM (GE Healthcare, Ltd., Pittsburgh, Pa.). Then, 400 g of the resulting substance was subjected to centrifugation for 40 minutes, and peripheral blood […] cells (PBMCs) separated as an intermediate layer were collected.
PBMCs were supplemented with CD14 microbeads (Miltenyi Biotec K.K.), and caused to react at 4° C. for 15 minutes. The cells were passed through LS columns (Miltenyi Biotec K.K., Tokyo, Japan), and CD14-positive cells were obtained by using QuadroMACS™ Separator (Miltenyi Biotec K.K., Tokyo, Japan). The rest of the cells were collected and washed, and then supplemented with CD8 microbeads (Miltenyi Biotec K.K., Tokyo, Japan) and allowed to react at 4° C. for 15 minutes. Thereafter, a similar process is performed, thereby obtaining CD8-positive cells. The CD14-positive cells were subjected to differentiation induction to monocyte-derived dendritic cells (Mo-DCs), and CD8-positive cells were temporarily frozen for storage.
Since CD8-positive cells were subjected to antigen stimulation twice, peptide-presenting cells were produced twice accordingly. CD14-positive cells were disseminated in two RepCell plates (CellSeed Inc., Tokyo, Japan), and incubated in a 5% CO2 incubator at 37° C. with a culture solution in which 100 ng/ml GM-CSF (R&D Systems, Minneapolis, Minn.) and 10 ng/ml IL-4 (R&D Systems) were added to an AIM-V (Invitrogen Corporation, Carlsbad, Calif.) culture medium including antibiotic and serum.
First production of peptide-presenting cells was started 5-7 days after the start of incubation. To one of the plates, 0.1 KE/ml OK-432 (Chugai Pharmaceutical Co., Ltd., Tokyo, Japan) was added, and on the next day, cells were collected and inoculated in a 96-well U-bottom plate. Then, 20 μg/ml of assay peptide of one type was added to each half area (48 wells) of the plate, and incubated for one day at 37° C. in a 5% CO2 incubator, thereby producing peptide-presenting cells. Second production was performed similarly on the other plate 12-14 days after the start of incubation.
Peptide-presenting cells in a 96-well plate were irradiated with X rays (30 Gy), and the frozen stored CD8-positive cells were added to all the wells, thereby performing first antigen stimulation. As a culture solution, a solution in which 10 ng/ml IL-7 (R&D Systems, Minneapolis, Minn.) was added to an AIM-V culture medium including antibiotic and serum was used. After incubation for seven days, cells included in supernatant were collected and cocultured with peptide-presenting cells (after X-ray irradiation) obtained by the second production, thereby performing second antigen stimulation in the 96-well plate. At this time, 20 U/mL of IL-2 (Shionogi & Co., Ltd., Florham Park, N.J.) was added to the culture solution. After further incubation for seven days, cells in supernatant including CTL were collected and washed with an AIM-V culture medium including antibiotic and serum to have a concentration of approximately 2×10^5 cells/ml per well, thereby obtaining responder cells for an ELISPOT assay.
T2 cells of stimulator cells for use in an ELISPOT assay were produced by incubating the cells for one night in an AIM-V culture medium supplemented with an assay peptide (20 μg/mL). As stimulator cells of a negative control, only T2 cells were used (without peptides). […]

Row | Sequence | Specific spot number (Ave ± SD) [1] | Positive donor number [2] | Donor positive percentage [2] | also measured
1 | SLATYMRSL [PSF1-derived peptide, initiating amino acid no; 120] | 70 ± 79 | – | – | –
2 | CLKDYGEFEV [PSF1-derived peptide, initiating amino acid no; 152] | 53 ± 28 | – | – | –
3 | RALRWEYGSVLPN | – | – | – | cytotoxic activity (T2 cells): particularly high
4 | RALRWEYGSV [PSF1-derived peptide, initiating amino acid no; 88] | – | 3 | 60% | CTL inducibility (peptide specific CTL): high
5 | ALRWEYGSV | – | – | – | cytotoxic activity (T2 cells): particularly high
6 | KAMELIREL [PSF1-derived peptide, initiating amino acid no] | 22 ± 13 | – | – | –
7 | AYLYDRLLRI [PSF1-derived peptide, initiating amino acid no; 78] | 23 ± 21 | – | – | CTL inducibility (peptide specific CTL): high
8 | EMKALYEQN [PSF1-derived peptide, initiating amino acid number 35] | 6 ± 8 | 1 | 13% | –
9 | GDEGLDITQDMKP [PSF1-derived peptide, initiating amino acid number 130] | 1 ± 2 | 0 | 0% | –
10 | LIRNRRCTV | 7 ± 9 | – | – | –
11 | ALYEQNQDSV [PSF1-derived peptide, initiating amino acid no; 38] | 30 ± 15 | – | – | –
12 | FLPRWKCEQL [PSF1-derived peptide, initiating amino acid no; 176] | 31 ± 24 | – | – | –
13 | SLLRNRRCTV [PSF1-derived peptide, initiating amino acid no; 68] | 1 ± 2 | – | – | –
14 | YLYDRLLRI | – | – | – | cytotoxic activity (T2 cells): particularly high
15 | ALRWEYGSVL [PSF1-derived peptide, initiating amino acid no; 89] | – | 2 | 100% | Survival rate of target cells pulsed with peptide vs not pulsed (T2 cells; CTL line specific to the peptide cocultured with T2 cells at E:T 1:1, 3:1, 10:1, FIG. 2): decreased to a degree greater than target cells not pulsed with peptides; CTL inducibility (peptide specific CTL): high
16 | VLPNALRFHM [PSF1-derived peptide, initiating amino acid no; 97] | 127 ± 41 | – | – | –
17 | QVLEEMKAL [PSF1-derived peptide, initiating amino acid no; 31] | 7 ± 7 | – | – | –
18 | LPAFNEDGLRQV [PSF1-derived peptide, initiating amino acid number 21] | 3 ± 8 | 0 | 0% | –
19 | SLYIEVRCL [PSF1-derived peptide, initiating amino acid no; 145] | 43 ± 24 | 2 | 100% | –
20 | YLYDRLLRIR [PSF1-derived peptide, initiating amino acid no; 79] | 165 ± 17 | – | – | CTL inducibility (peptide specific CTL): high
